Conditions: 343.15 K, Liquid, Vibrating tube method

CCCCCCC(=O)OCC(COC(=O)CCCCCC)(COC(=O)CCCCCC)COC(=O)CCCCCC [pentaerythritol tetraheptanoate]
Conditions	mass density [kg/m3]
476.1 kPa	940.9
482 kPa	941
488.1 kPa	940.8
495.4 kPa	940.9
502 kPa	940.9
508.7 kPa	940.9
517.2 kPa	941
524.5 kPa	941
532 kPa	941.1
540.9 kPa	940.9
548.4 kPa	941
556.3 kPa	941.1
566.3 kPa	941.1
574.9 kPa	941
583.8 kPa	940.9
594.9 kPa	941
603.8 kPa	941
613.5 kPa	941.1
625.7 kPa	941.1
635.8 kPa	941.1
646.5 kPa	941
659.6 kPa	940.9
671.2 kPa	941.2
682.7 kPa	941.2
697.1 kPa	941.1
710.1 kPa	941.2
724 kPa	941.1
738.3 kPa	941
752.5 kPa	941.1
767.1 kPa	941.2
785.4 kPa	941.2
801.2 kPa	941.1
817.7 kPa	941.3
834.7 kPa	941.2
856.1 kPa	941.1
874 kPa	941.2
893.8 kPa	941.3
917.4 kPa	941.2
938.8 kPa	941.3
961.5 kPa	941.3
984.8 kPa	941.2
1008.1 kPa	941.3
1031.5 kPa	941.3
1061.2 kPa	941.5
1083.6 kPa	941.4
1098.2 kPa	941.3
1114.7 kPa	941.4
1128.5 kPa	941.4
1142.9 kPa	941.4
1159.9 kPa	941.4
1174.6 kPa	941.5
1189.9 kPa	941.6
1208.5 kPa	941.5
1224.5 kPa	941.5
1241 kPa	941.6
1261 kPa	941.6
1278.5 kPa	941.6
1296.2 kPa	941.6
1314.1 kPa	941.6
1336.3 kPa	941.6
1355.4 kPa	941.6
1375.4 kPa	941.5
1441 kPa	941.6
1467.4 kPa	941.7
1489.7 kPa	941.8
1512.2 kPa	941.7
1535.7 kPa	941.8
1564.1 kPa	941.8
1588.8 kPa	941.8
1613.6 kPa	941.8
1644.5 kPa	941.8
1671.3 kPa	941.8
1699 kPa	941.9
1727.1 kPa	941.8
1762.2 kPa	941.9
1792.2 kPa	941.9
1821.9 kPa	941.8
1847.4 kPa	942
1859.8 kPa	941.9
1867.2 kPa	942
1876.6 kPa	942
1884.6 kPa	942.1
1892.9 kPa	942
1901.2 kPa	942
1911 kPa	942.1
1919.1 kPa	942
1927.8 kPa	942.1
1937.7 kPa	942.1
1946.9 kPa	942.1
1955.4 kPa	942.1
1964.1 kPa	942.1
1974.3 kPa	942.1
1983.3 kPa	942.1
1992.2 kPa	942
2001 kPa	942.1
2012 kPa	942.2
2021 kPa	942.2
2030.2 kPa	942.1
2040.9 kPa	942.1
2050.5 kPa	942.1
2059.8 kPa	942.2
2069.4 kPa	942.3
2079.3 kPa	942.2
2090.4 kPa	942.2
2099.8 kPa	942.2
2111.2 kPa	942.2
2121.3 kPa	942.1
2130.8 kPa	942.3
2142.6 kPa	942.2
2152.5 kPa	942.2
2162.2 kPa	942.3
2172.5 kPa	942.2
2184.4 kPa	942.3
2195 kPa	942.3
2206.1 kPa	942.2
2216.5 kPa	942.3
2228.9 kPa	942.4
2239.4 kPa	942.3
2249.8 kPa	942.2
2260.8 kPa	942.3
2273.8 kPa	942.3
2284.7 kPa	942.3
2295.3 kPa	942.4
2308.5 kPa	942.3
2319.6 kPa	942.4
2330.5 kPa	942.4
2344.6 kPa	942.3
2356.7 kPa	942.4
2368 kPa	942.5
2379.5 kPa	942.3
2390.7 kPa	942.3
2405 kPa	942.2
2416.9 kPa	942.4
2428.7 kPa	942.4
2442.8 kPa	942.5
2454.7 kPa	942.4
2466.9 kPa	942.5
2481.6 kPa	942.5
2493.9 kPa	942.5
2506.3 kPa	942.7
2518.9 kPa	942.4
2534.2 kPa	942.4
2546.7 kPa	942.6
2559.3 kPa	942.5
2574.1 kPa	942.5
2587.4 kPa	942.5
2600.6 kPa	942.5
2616.2 kPa	942.5
2629.4 kPa	942.6
2642.8 kPa	942.7
2656.5 kPa	942.6
2672.6 kPa	942.7
2686.5 kPa	942.7
2700.9 kPa	942.7
2714.7 kPa	942.6
2731.4 kPa	942.6
2745.6 kPa	942.6
2759.8 kPa	942.7
2777 kPa	942.7
2791.7 kPa	942.6
2806.1 kPa	942.7
2823.8 kPa	942.7
2838.2 kPa	942.7
2853.3 kPa	942.7
2871.1 kPa	942.8
2886.2 kPa	942.8
2902 kPa	942.8
2917.3 kPa	942.9
2935.8 kPa	942.8
2951.4 kPa	942.8
2967.4 kPa	942.8
2986.5 kPa	942.9
3002.7 kPa	942.8
3018.9 kPa	942.9
3038.1 kPa	942.9
3054.6 kPa	942.8
3071.2 kPa	943
3088.2 kPa	943
3108.3 kPa	943
3125.5 kPa	942.9
3142.7 kPa	943
3163.3 kPa	942.9
3181 kPa	943
3198.1 kPa	943
3219.1 kPa	943
3237.1 kPa	943
3254.6 kPa	943
3276.5 kPa	943.1
3294.7 kPa	943.2
3313 kPa	943.2
3335.1 kPa	943.2
3354.3 kPa	943.1
3373.4 kPa	943.2
3392.3 kPa	943
3411.7 kPa	943.3
3435.1 kPa	943.2
3454.3 kPa	943.2
3473.9 kPa	943.2
3497.6 kPa	943.2
3517.4 kPa	943.2
3537.3 kPa	943.3
3561.7 kPa	943.3
3582.2 kPa	943.4
3603.3 kPa	943.2
3625.8 kPa	943.3
3646.8 kPa	943.3
3672.1 kPa	943.3
3693.4 kPa	943.5
3715.2 kPa	943.4
3736.7 kPa	943.4
3763.2 kPa	943.5
3785.2 kPa	943.4
3807.8 kPa	943.5
3834.6 kPa	943.5
3857.8 kPa	943.4
3885.7 kPa	943.5
3909.5 kPa	943.5
3934.6 kPa	943.5
3958.1 kPa	943.7
3981.8 kPa	943.5
4005.9 kPa	943.6
4035 kPa	943.6
4059.1 kPa	943.7
4088.5 kPa	943.7
